Values quoted from earlier work in US7119079B2, “Bioadhesive pharmaceutical compositions” (priority 2003, dated 2006).

Columns and labels:
[1] = system: distal ulcerative colitis; conditions: enemas, patients with distal ulcerative colitis; fraction of patients
[2] = system: Mycobacterium tuberculosis
[3] = system: distal ulcerative colitis; conditions: compared with hydrocortisone and mesalamine enemas

Nc1ccc(O)c(C(=O)O)c1 [mesalamine, 5-amino salicylic acid]
patients showing improvement [1]: Three quarters

Nc1ccc(S(=O)(=O)Nc2ccccn2)cc1 [sulfapyridine]
patients showing improvement [1]: about one third

Nc1ccc(C(=O)O)c(O)c1 [Compound 4-ASA, 4-amino salicylic acid]
activity against Mycobacterium tuberculosis [2]: bacteriostatic | effectiveness of enemas in distal ulcerative colitis [3]: as effective as hydrocortisone enemas and as effective as mesalamine enemas

O=C(O)c1cc(/N=N/c2ccc(S(=O)(=O)Nc3ccccn3)cc2)ccc1O [sulfasalazine, salicyl-azo-sulfapyridine]
patients showing improvement [1]: Three quarters
